Test results from patent US4616020A, “Medicaments, vicinal dihydroxyalkylxanthines contained therein, processes for the preparation of these xanthine compounds and intermediate products suitable for these” (Hoechst Aktiengesellschaft, priority 1981, dated 1986).
Read-outs that look alike come from different tables or passages of the source.

Tests used:
[1] = Acute toxicity, mortality within 7 days among NMRI mice after single administration; details: in vivo, mouse
Excerpt: (§1) Determination of the LD50 values was by the standard method of the mortality occurring within 7 days among NMRI mice after a single intravenous (i.v.), intraperitoneal (i.p.) or oral (p.o.) administration.
*determined by the method of Litchfield and Wilcoxon (J. Pharmacol. exp.

[2] = system: histamine-induced bronchospasm; test: Bronchospasmolytic activity (Konzett-Rossler): inhibition of histamine-induced bronchospasm in guinea-pigs; format: in vivo; details: Cavia porcellus, iv, guinea-pig, urethane anaesthesia; read-out: Bronchospasmolytic effect (ED50) compared to histamine
Experimental: (§2) The test substances were administered in aqueous solution either intravenously (i.v.) or intraduodenally (i.d.). The ED50 values, which represent that dose in mg/kg at which the experimentally produced spasm is decreased by one half compared to that in untreated animals, were determined graphically from the dose-activity curves.

[3] = system: acetylcholine-induced bronchospasm; test: Bronchospasmolytic activity (Konzett-Rossler): inhibition of acetylcholine-induced bronchospasm in guinea-pigs; format: in vivo; details: Cavia porcellus, iv, guinea-pig, urethane anaesthesia; read-out: Bronchospasmolytic effect (ED50) compared to acetylcholine
Experimental: as §2

Ratio of LD50 to ED50 = format: in vivo, mouse (LD50); guinea-pigs (ED50); details: ED50 i.v. guinea-pig
Experimental: as §2, §1

[4] = background statement; cited from earlier work
central nervous system [5] = system: central nervous system; design: species or system mice; details: mouse, in vivo, po, 30 mg/kg
Experimental: In contrast, the compounds of the formula I according to the invention have no component stimulating the central nervous system, but, on the contrary, exert a slight depressant effect on the central nervous system which is assessed to be particularly advantageous from the therapeutic point of view. Thus, the spontaneous motility of mice, for example, is decreased by 53% for a period of 11 hours after oral administration of 50 mg/kg of the compound from Example 1.

[6] = system: serotonine-induced bronchospasm; test: Bronchospasmolytic activity (Konzett-Rossler): inhibition of serotonine-induced bronchospasm in guinea-pigs; format: in vivo; details: Cavia porcellus, iv, guinea-pig, urethane anaesthesia; read-out: Bronchospasmolytic effect (ED50) compared to serotonine
Experimental: as §2

[7] = system: bronchospasm induced with bradykinin; test: Inhibitory effect on bronchospasm induced in guinea-pigs with bradykinin; format: in vivo; details: Cavia porcellus, read-out: ED50, bronchospasm induced with bradykinin
Excerpt: Since it is regarded as proven that, apart from the biogenic amines, acetylcholine, histamine and serotonine, listed in Table 4, bradykinin also plays an important part as a mediator substance in the provocation of asthma attacks, the inhibitory effect on the bronchospasm induced in guinea-pigs with bradykinin was investigated.

[8] = system: bronchospastic reactions induced with aerosols of acetylcholine, histamine and ascaris extract; test: Pulmonary function test on the anaesthetized dog: inhibition of bronchospastic reactions induced with aerosols of acetylcholine, histamine and ascaris extract; format: in vivo; details: doses up to 20 mg/kg i.v.
[9] = background statement; cited from earlier work; remark: listed apart in the source
NMRI mice = details: mouse, i.v.; according to German Offenlegungsschrift 2,716,402; 10080 min; cited from earlier work
central nervous system [10] = details: according to German Offenlegungsschrift No. 2,716,402; markedly less than theophylline; cited from earlier work
[11] = background statement; cited from earlier work; remark: listed apart in the source

Row | Compound | LD50 at 168 h ([1]; iv) [mg/kg] | ED50 [2] [mg/kg] | ED50 [3] [mg/kg] | ratio of LD50 to ED50 (head is drawing 107) (Ratio of LD50 to ED50; LD50 i.v. mouse) | ED50 [6] [mg/kg] | also measured
1 | CCCn1c(=O)n(C)c(=O)c2c1ncn2CCCCC(O)CO (stereo not drawn) [Example 30] | 250 | 2 | 6.5 | 59 |  | 
2 | Cn1c(=O)c2[nH]cnc2n(C)c1=O.NCCN [Theophylline-ethylenediamine, theophylline-ethylenediamine, reference compound] | 195 | 5.6 | 8.3 |  | 7.3 | LD50 at 168 h ([1]; po): 550 mg/kg; therapeutic range [4]: not associated with a significant increase in the therapeutic range; increase in spontaneous motility (central nervous system [5]): 186%; ED50 ([7]; iv): 3 to 10 mg/kg; ED50 [7]: 25 to 40 mg/kg
3 | NCCN [ethylenediamine] |  |  |  |  |  | side-effects [4]: deleterious effect on the cardiovascular system
4 | CCn1c(=O)c2c(ncn2CCCCC(O)CO)n(CC)c1=O (stereo not drawn) [Example 2, 1,3-Diethyl-7-(5,6-dihydroxyhexyl)xanthine] | 325 | 2 | 2 | 163 | 2 | 
5 | CCCn1c(=O)c2c(ncn2CCCCC(O)CO)n(C)c1=O (stereo not drawn) [Example 18] | 300 | 6.5 | 6.5 | 46 | 6.5 | 
6 | CCn1c(=O)n(C)c(=O)c2c1ncn2CCCCC(O)CO (stereo not drawn) [Example 24] | 300 | 2 | 6.5 | 49 | 10 | 
7 | CCCCCn1c(=O)c2c(ncn2CCCCC(O)CO)n(CC)c1=O (stereo not drawn) [Example 28] | 200 | 3 | 2 | 75 | 3 | 
8 | CCCn1c(=O)c2c(ncn2CCCCCC(O)CO)n(CC)c1=O (stereo not drawn) [Example 51] | 300 | 2 | 2 | 150 |  | 
9 | CCCn1c(=O)c2c(ncn2CCC(O)CO)n(CCC)c1=O (stereo not drawn) [Example 12] |  | 10 | 6.5 |  | 10 | LD50 at 168 h ([1]; ip): > 600 mg/kg; ratio of LD50 to ED50 (head is drawing 107) (Ratio of LD50 to ED50; LD50 i.p. mouse): > 68
10 | Cn1c(=O)c2[nH]cnc2n(C)c1=O [theophylline, 1,3-dimethylxanthine] |  |  |  |  |  | therapeutic range [4]: very narrow therapeutic range; effect on bronchospastic reactions [8]: no effect; water solubility [9]: lack of water solubility
11 | CCn1c(=O)c2c(ncn2CCCCC(O)CO)n(C)c1=O (stereo not drawn) [Example 17] | > 300 | 6.5 | 2 | > 60 | 6.5 | 
12 | Cn1c(=O)c2c(ncn2CC(O)CO)n(C)c1=O (stereo not drawn) [Diphylline, 7-(2,3-dihydroxypropyl)-1,3-dimethylxanthine] |  | > 30 | > 30 |  | > 30 | side-effects [4]: much less pronounced; Toxicity LD50 (NMRI mice): 886 mg/kg; ratio of LD50 to ED50 (head is drawing 107) (Ratio of LD50 to ED50; LD50 i.v. mouse from German Offenlegungsschrift 2,716,402): < 30; stimulation of the central nervous system (central nervous system [10]): stimulation of the central nervous system; water solubility [9]: good water solubility; bronchospasmolytic activity compared to theophylline [11]: drastic decrease in the bronchospasmolytic activity
